Measured values as given in US20260207713A1, “Drug Combination Kit for Controlling Blood Sugar” (Ningbo Y Biotechology lnc., priority 2023, published 2026).

Experiments:
diabetic rat models = assay: Type II diabetes rat model (high-sugar, high-fat diet plus STZ); fasting blood sugar and glycated hemoglobin after 3 months of drug intervention; assay type: in vivo, SPD rats
Procedure: A study in Aging (Albany NY). 2021 Mar. […] The inventor opted for 12-month-old male SPD rats (weighing between 540 grams and 560 grams) for the experiment. These rats were fed a high-sugar, high-fat diet (10% lard, 2.5% cholesterol, 1.0% pig bile salt, 20% sucrose, and 66.5% conventional feed). […] The diet continued for an additional 12 weeks. Finally, rats with a fasting blood sugar level exceeding 10 mmol/L were selected, and their fasting blood sugar levels were measured for 3 consecutive times every 3 days. Rats maintaining stable fasting blood sugar levels above 10 mmol/L were chosen. Each group comprised 5 animals, and a standard diet (18.0% fat, 24.0% protein, and 58.0% carbohydrates) was administered during the drug intervention period. Given that the lifespan of glycated hemoglobin is approximately 3 months, the duration of drug intervention was established at 3 months to ensure precise measurement of post-intervention glycated hemoglobin.
These ingredients are mixed evenly with unsaturated fish oil, and then encapsulated in ultra-long type No. 9 enteric-coated capsules. […] The ketoester was diluted with flavored water to achieve a 50% concentration, while the control solution consisted of flavored water only. The method of gastric gavage was employed.
After three months of medication, blood was drawn from the tail to measure fasting blood sugar and glycated hemoglobin, with results expressed as the mean.
Feed 50% ketoester solution three times daily: at 8 am, 12 pm, and 5 pm. The total daily intake was selected as 3 g/kg/day or 5 g/kg/day, as referenced in BMC Anesthesiol. 2023; 23:p43. […] The subsequent experiment utilized 50% ketoester solution at 3 g/day/kg.

[1] = cited from earlier work
[2] = system: patients with type II diabetes; conditions: type II diabetes patients on chemical hypoglycemic drugs, no insulin injection, 28 consecutive days; cited from earlier work
[3] = 20 mg/kg once a day in the morning, diabetic rats
[4] = 50% ketoester solution 3 g/kg/day, three times daily by gavage, diabetic rats
[5] = 50% ketoester solution 5 g/kg/day, three times daily by gavage, diabetic rats

For `Cc1ccc([C@@H]2O[C@H](CO)[C@@H](O)[C@H](O)[C@H]2O)cc1Cc1ccc(-c2ccc(F)cc2)s1` [Canagliflozin, canagliflozin, reference compound], the “Fasting blood sugar after three months” value (diabetic rat models; [3]) was 6.38 ± 0.41 mmol/L and the “Glycated hemoglobin measurement after three months” value (“Glycated hemoglobin measurement” below) (diabetic rat models; [3]) was 5.63 +/− 0.42%.
For `C[C@@H](O)CCOC(=O)C[C@@H](C)O` [ketoester, (R)-3-hydroxybutyrate-(R)-1,3-butanediol ester], the “Duration of ketogenic effect” value ([1]; oral solution) is listed as 4 to 6 h, the “Ketogenic effect (level reached)” value ([1]; oral solution) is listed as “approximately 3 mM” and the “Difference in effects on fasting blood sugar and glycated hemoglobin between dosages” value (diabetic rat models; 3 g/kg/day versus 5 g/kg/day) is listed as “no significant difference”. The “Fasting blood sugar measurement after three months” value (diabetic rat models; [4]) was 7.15 ± 0.51 mmol/L, the “Glycated hemoglobin measurement” value (diabetic rat models; [4]) was 6.82 +/− 0.34% and the “Fasting blood sugar measurement after three months” value (diabetic rat models; [5]) was 6.90 ± 0.41 mmol/L. The “Glycated hemoglobin measurement” value (diabetic rat models; [5]) was 6.75 +/− 0.42%, the Reduction in fructosamine [2] was 13.4% and the “Reduction in glycated hemoglobin” value [2] was 8.3%.
In the case of `CC(O)CC(=O)[O-].[Na+]` (stereo not drawn) [sodium 3-hydroxybutyrate, reference compound], the Ketogenic effects ([1]; early exogenous ketone) is listed as “poor ketogenic effects”.
